Values after ≈ are worked out from the molar mass of the structure shown. Structures can show the parent of a compound that is named as a salt. Where two headings read alike, the source gives them in different places.
Tests used:
Type in all cases: cell-based
[1] = system: Colo205 (ATCC CCL 222): human colon adenocarcinoma; experiment: In vitro antitumor activity, MTT assay, Colo205; conditions: Homo sapiens
Description: (§1) In vitro antitumor activity against human tumor cell lines
(§2) In vitro antitumor activity of the compounds according to the present invention was determined by MTT assay method against the following human tumor cell lines:
Colo205 (ATCC CCL 222): human colon adenocarcinoma
(§3) In this test, the known antineoplastic compounds, Doxorubicin and Sulofenur, were used as the comparative agents.
(§4) Each of the tumor cells was cultured in RPMI 1640 media containing 10% fetal bovine serum, 100 IU/ml penicillin and 100 μg/ml streptomycin, and then periodically subcultured once or twice per week in trypsin-EDTA solution containing 0.05% trypsin and 0.53mM EDTA.4Na. The human tumor cell line thus obtained (10,000cells/100 μl) was plated on 96-well microplate and then cultured for 24 hrs at 37° C. in a 5% CO2 incubator. Test compound was dissolved in DMSO, sterilized with 0.22 μm PVDF filter, and then serially 5-fold diluted from 40 μg/ml to 0.00256μg/ml. 100 μl of the sample solution thus prepared and RPMI 1640 medium only (control group) were added to 96-well microplate containing the human tumor cell, respectively. The final concentration of the test compound was in the range from 20 μg/ml to 0.00128 μg/ml and the concentration of DMSO was below 0.5%. The cells were cultured for 48 hrs at 37° C. in a 5% CO2 incubator. MTT(3-(4,5-Dimethylthiazole-2-yl)-e,5-diphenyltetrazoliumbromide) was dissolved in physiological saline in a concentration of 2 mg/ml and the resulting solution was filtered through 0.22 μm PTFE filter. 25 μl of MTT solution thus prepared was added to each well of 96-well microplate and incubated for additional 4 hrs at 37° C. in a 5% CO2 incubator. Then, the content of microplate was centrifuged at 1000 rpm for 10 min, and supernatant was removed by flicking. The formazan formed from MTT by mitochondrial succinate dehydrogenase was dissolved in 100 μl of DMSO. The absorbance of each well was measured at 540nm by micro ELISA reader and the cytotoxicity was calculated by dividing the absorbance of test group by the absorbance of control group. After the calculated cytotoxicity (%) was plotted, the concentration of 50% tumor growth inhibition concentration (IC50) was estimated by Linear-Regression method.

[2] = system: SK-OV-3 (ATCC HTB 77): human ovarian adenocarcinoma; experiment: In vitro antitumor activity, MTT assay, SK-OV-3; conditions: Homo sapiens
Description: as §1, §2
SK-OV-3 (ATCC HTB 77): human ovarian adenocarcinoma
as §3, §4

[3] = system: KB (ATCC CCL 17): human epidermoid carcinoma; experiment: In vitro antitumor activity, MTT assay, KB; conditions: Homo sapiens, MTT, 48 hrs, read-out: IC50 (KB)
Description: as §1, §2
KB (ATCC CCL 17): human epidermoid carcinoma
as §3, §4

[4] = system: A549 (ATCC CCL 185): human lung carcinoma; experiment: In vitro antitumor activity, MTT assay, A549; conditions: Homo sapiens, A549, 48 h
Description: as §1, §2
A549 (ATCC CCL 185): human lung carcinoma
as §3, §4

[5] = system: K562 (ATCC CCL 243): human chronic myelogenous leukemia; experiment: In vitro antitumor activity, MTT assay, K562; conditions: Homo sapiens, K562, 48 h, Table 3, read-out: IC50 (K562)
Description: as §1, §2
K562 (ATCC CCL 243): human chronic myelogenous leukemia
as §3, §4

[6] = COLO 205, Table 1, 48 hrs, read-out: IC50 (Colo205)
[7] = COLO 205, Table 2, 48 hrs, read-out: IC50 (Colo205)
[8] = COLO 205, Table 3, 48 hrs, read-out: IC50 (Col205)

Row | IC50 [1, 6] | IC50 ([2]; SK-OV-3, Table 1, 48 hrs) | IC50 ([3]; Table 1) | IC50 ([4]; Table 1) | IC50 [1, 8] | IC50 ([2]; SK-OV-3, Table 3, 48 hrs) | IC50 ([4]; Table 3) | IC50 [5] | Structure (SMILES) | other results
1 | 0.644 µg/mL (≈ 1.45 µM) | 1.22 µg/mL (≈ 2.73 µM) | 0.028 µg/mL (≈ 0.0629 µM) | 0.199 µg/mL (≈ 0.447 µM) |  |  |  |  | O=C(c1ccccc1)N1CCc2cc(S(=O)(=O)n3cc(-c4ccccc4)[nH]c3=O)ccc21 [Example 13, 4-phenyl-1-(N-benzoylindoline-5-sulfonyl)-2-imidazolone] | 
2 | 0.906 µg/mL (≈ 2.19 µM) | 10.1 µg/mL (≈ 24.3 µM) | 0.017 µg/mL (≈ 0.0411 µM) | 0.374 µg/mL (≈ 0.905 µM) |  |  |  |  | CCOC(=O)N1CCc2cc(S(=O)(=O)n3cc(-c4ccccc4)[nH]c3=O)ccc21 [Example 1, 4-phenyl-1-(N-ethoxycarbonylindoline-5-sulfonyl)-2-imidazolone] | 

Continued, molecule first:

Row | Structure (SMILES) | IC50 [1, 6] | IC50 ([2]; SK-OV-3, Table 1, 48 hrs) | IC50 ([3]; Table 1) | IC50 ([4]; Table 1) | IC50 [1, 8] | IC50 ([2]; SK-OV-3, Table 3, 48 hrs) | IC50 ([4]; Table 3) | IC50 [5] | other results
3 | CCOc1ccc(C(=O)N2CCc3cc(S(=O)(=O)n4cc(-c5ccccc5)[nH]c4=O)ccc32)cc1 [Example 14, 4-phenyl-1-[N-(4-ethoxybenzoyl)indoline-5-sulfonyl]-2-imidazolone] | 1.28 µg/mL (≈ 2.62 µM) | 0.926 µg/mL (≈ 1.89 µM) | 0.107 µg/mL (≈ 0.219 µM) | 0.445 µg/mL (≈ 0.909 µM) |  |  |  |  | 
4 | O=C(c1ccc([N+](=O)[O-])cc1)N1CCc2cc(S(=O)(=O)n3cc(-c4ccccc4)[nH]c3=O)ccc21 [Example 9, 4-phenyl-1-[N-(4-nitrobenzoyl)indoline-5-sulfonyl]-2-imidazolone] | 0.651 µg/mL (≈ 1.33 µM) | 0.106 µg/mL (≈ 0.216 µM) | 0.045 µg/mL (≈ 0.0917 µM) | 0.528 µg/mL (≈ 1.08 µM) |  |  |  |  | 
5 | CC(C)CNCC(=O)N1c2ccc(S(=O)(=O)n3cc(-c4ccccc4)[nH]c3=O)cc2CC1C (centres unmarked) [Example 25, 4-phenyl-1-(N-isobutylaminoacetyl-2-methylindoline-5-sulfonyl)-2-imidazolone.HCl] |  |  |  |  |  |  |  |  | IC50 [1, 7]: 3.07 µg/mL; IC50 ([2]; SK-OV-3, Table 2, 48 hrs): 1.4 µg/mL; IC50 ([3]; Table 2): 0.246 µg/mL; IC50 ([4]; Table 2): 3.23 µg/mL
6 | COc1ccc(NC(=O)N2CCc3cc(S(=O)(=O)N4CC(c5ccccc5)NC4=O)ccc32)cc1 (centres unmarked) [Example 36, 4-phenyl-1-[N-(4-methoxyphenyl)carbamoylindoline-5-sulfonyl]-4,5-dihydro-2-imidazolone] |  |  |  |  | 0.391 µg/mL (≈ 0.794 µM) | 0.047 µg/mL (≈ 0.0954 µM) | 0.18 µg/mL (≈ 0.365 µM) | 6.92 µg/mL (≈ 14 µM) | 
7 | Nc1ccc(NC(=O)N2CCc3cc(S(=O)(=O)N4CC(c5ccccc5)NC4=O)ccc32)cc1 (centres unmarked) [Example 35, 4-phenyl-1-[N-(4-aminophenyl)carbamoylindoline-5-sulfonyl)-4,5-dihydro-2-imidazolone] |  |  |  |  | 3.24 µg/mL (≈ 6.78 µM) | 0.763 µg/mL (≈ 1.6 µM) | 0.286 µg/mL (≈ 0.599 µM) | 0.004 µg/mL (≈ 0.00838 µM) | 
8 | CCCCNC(=S)N1CCc2cc(S(=O)(=O)N3CC(c4ccccc4)NC3=O)ccc21 (centres unmarked) [Example 41, 4-phenyl-1-(N-butylthiocarbamoylindoline-5-sulfonyl)-4 5-dihydro-2-imidazolone] |  |  |  |  | 2.4 µg/mL (≈ 5.23 µM) | 0.897 µg/mL (≈ 1.96 µM) | 0.584 µg/mL (≈ 1.27 µM) | 2.05 µg/mL (≈ 4.48 µM) | 
9 | CC(C)NC(=O)N1CCc2cc(S(=O)(=O)N3CC(c4ccccc4)NC3=O)ccc21 (centres unmarked) [Example 31, 4-phenyl-1-(N-isopropylcarbamoylindoline-5-sulfonyl)-4,5-dihydro-2-imidazolone] |  |  |  |  | 0.258 µg/mL (≈ 0.602 µM) | 0.28 µg/mL (≈ 0.653 µM) | 0.073 µg/mL (≈ 0.17 µM) | 0.439 µg/mL (≈ 1.02 µM) | 
10 | CC1Cc2cc(S(=O)(=O)n3cc(-c4ccccc4)[nH]c3=O)ccc2N1C(=O)CNC(C)(C)C (centres unmarked) [Example 27, 4-phenyl-1-(N-t-butylaminoacetyl-2-methylindoline-5-sulfonyl)-2-imidazolone.HCl] |  |  |  |  |  |  |  |  | IC50 [1, 7]: 5.68 µg/mL; IC50 ([2]; SK-OV-3, Table 2, 48 hrs): 2.44 µg/mL; IC50 ([3]; Table 2): 0.317 µg/mL; IC50 ([4]; Table 2): 1.45 µg/mL
11 | O=C(c1ccc(Cl)cc1)N1CCc2cc(S(=O)(=O)n3cc(-c4ccccc4)[nH]c3=O)ccc21 [Example 18, 4-phenyl-1-[N-(4-chlorobenzoyl)indoline-5-sulfonyl]-2-imidazolone] |  |  |  |  |  |  |  |  | IC50 [1, 7]: 2.05 µg/mL (≈ 4.27 µM); IC50 ([2]; SK-OV-3, Table 2, 48 hrs): > 20 µg/mL; IC50 ([3]; Table 2): 0.13 µg/mL (≈ 0.271 µM); IC50 ([4]; Table 2): 0.607 µg/mL (≈ 1.26 µM)

— patent US5932742A, “Arylsulfonylimidazolone derivatives as an antitumor agent” (priority 1996, dated 1999)
